Measurements from the supplement of paper PMC11061612.

Columns and labels:
Carboplatin = compound: C1CC(C1)(C(=O)[O-])C(=O)[O-].N.N.[Pt+2] [Carboplatin]; details: max 10 µM
Method in brief: (§1)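 Plates with 1536 wells received cancer cell lines in 7.5 μl of DMEM/F12 or RPMI containing 10% FBS. After 24 hours at 37°C and 5% CO2, cells were dosed for 72 hours with final DMSO typically 0.2%, and viability was read by CellTiter-Glo 2.0 luminescence scaled between blank-well and DMSO-well means. The single-agent IC50 was taken from a logistic fit of the dose responses made with a non-linear mixed effects model, that logistic curve having two parameters.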

AZD5363 = compound: C1CN(CCC1(C(=O)N[C@@H](CCO)C2=CC=C(C=C2)Cl)N)C3=NC=NC4=C3C=CN4 [AZD5363]; details: max 10 µM
Method in brief: as §1

AZD1775 = compound: C=CCn1c(=O)c2cnc(Nc3ccc(N4CCN(C)CC4)cc3)nc2n1-c1cccc(C(C)(C)O)n1 [AZD1775]; details: max 3 µM
Method in brief: as §1

Trametinib = compound: CC(=O)Nc1cccc(-n2c(=O)n(C3CC3)c(=O)c3c(Nc4ccc(I)cc4F)n(C)c(=O)c(C)c32)c1 [Trametinib]; details: max 1 µM
Method in brief: as §1

Paclitaxel = compound: CC(=O)O[C@H]1C(=O)[C@@]2(C)[C@H]([C@H](OC(=O)c3ccccc3)[C@]3(O)C[C@H](OC(=O)[C@H](O)[C@@H](NC(=O)c4ccccc4)c4ccccc4)C(C)=C1C3(C)C)[C@]1(OC(C)=O)CO[C@@H]1C[C@@H]2O [Paclitaxel]; details: max 3 µM
Method in brief: as §1

Palbociclib = compound: CC(=O)c1c(C)c2cnc(Nc3ccc(N4CCNCC4)cn3)nc2n(C2CCCC2)c1=O [Palbociclib]; details: max 10 µM
Method in brief: as §1

AZD1390 = compound: CC(C)n1c(=O)n(C)c2cnc3cc(F)c(-c4ccc(OCCCN5CCCCC5)nc4)cc3c21 [AZD1390]; details: max 0.3 µM
Method in brief: as §1

Venetoclax = compound: CC1(C)CCC(CN2CCN(c3ccc(C(=O)NS(=O)(=O)c4ccc(NCC5CCOCC5)c([N+](=O)[O-])c4)c(Oc4cnc5[nH]ccc5c4)c3)CC2)=C(c2ccc(Cl)cc2)C1 [Venetoclax]; details: max 1 µM
Method in brief: as §1

Dasatinib = compound: CC1=C(C(=CC=C1)Cl)NC(=O)C2=CN=C(S2)NC3=CC(=NC(=N3)C)N4CCN(CC4)CCO [Dasatinib]; details: max 2 µM
Method in brief: as §1

SG3199 = compound: CC1=CN2[C@@H](C1)C=NC3=CC(=C(C=C3C2=O)OC)OCCCCCOC4=C(C=C5C(=C4)N=C[C@@H]6CC(=CN6C5=O)C)OC [SG3199]; details: max 0.001 µM
Method in brief: as §1

AZD2811 = compound: CCN(CCO)CCCOc1ccc2c(Nc3cc(CC(=O)Nc4cccc(F)c4)[nH]n3)ncnc2c1 [AZD2811]; details: max 1 µM
Method in brief: as §1

SN-38 = compound: CCc1c2c(nc3ccc(O)cc13)-c1cc3c(c(=O)n1C2)COC(=O)[C@]3(O)CC [SN-38]; details: max 0.3 µM
Method in brief: as §1

AZD0156 = compound: CN(C)CCCOc1ccc(-c2ccc3ncc4c(c3c2)n(C2CCOCC2)c(=O)n4C)cn1 [AZD0156]; details: max 3 µM
Method in brief: as §1

AZD4320 = compound: CN(CC[C@H](CSC1=CC=CC=C1)NC2=C(C=C(C=C2)S(=O)(=O)NC(=O)C3=CC=C(C=C3)N4CCC(CC4)[C@H](C5=CC=CC=C5C6=CC=C(C=C6)Cl)O)S(=O)(=O)C(F)(F)F)CCO [AZD4320]; details: max 1 µM
Method in brief: as §1

Alisertib = compound: COc1cc(Nc2ncc3c(n2)-c2ccc(Cl)cc2C(c2c(F)cccc2OC)=NC3)ccc1C(=O)O [Alisertib]; details: max 10 µM
Method in brief: as §1

Etoposide = compound: COc1cc([C@@H]2c3cc4c(cc3[C@@H](O[C@@H]3O[C@@H]5CO[C@@H](C)O[C@H]5[C@H](O)[C@H]3O)[C@H]3COC(=O)[C@H]23)OCO4)cc(OC)c1O [Etoposide]; details: max 10 µM
Method in brief: as §1

Gefitinib = compound: COc1cc2ncnc(Nc3ccc(F)c(Cl)c3)c2cc1OCCCN1CCOCC1 [Gefitinib]; details: max 10 µM
Method in brief: as §1

Prexasertib = compound: COc1cccc(OCCCN)c1-c1cc(Nc2cnc(C#N)cn2)n[nH]1 [Prexasertib]; details: max 1 µM
Method in brief: as §1

Doxorubicin = compound: COc1cccc2c1C(=O)c1c(O)c3c(c(O)c1C2=O)C[C@@](O)(C(=O)CO)C[C@@H]3O[C@H]1C[C@H](N)[C@H](O)[C@H](C)O1 [Doxorubicin]; details: max 1 µM
Method in brief: as §1

AZD5153 = compound: COc1nnc2ccc(N3CCC(c4ccc(OCCN5CCN(C)C(=O)[C@H]5C)cc4)CC3)nn12 [AZD5153]; details: max 1 µM
Method in brief: as §1

Lapatinib = compound: CS(=O)(=O)CCNCc1ccc(-c2ccc3ncnc(Nc4ccc(OCc5cccc(F)c5)c(Cl)c4)c3c2)o1 [Lapatinib]; details: max 10 µM
Method in brief: as §1

AZD8186 = compound: C[C@@H](Nc1cc(F)cc(F)c1)c1cc(C(=O)N(C)C)cc2c(=O)cc(N3CCOCC3)oc12 [AZD8186]; details: max 10 µM
Method in brief: as §1

Crizotinib = compound: C[C@@H](Oc1cc(-c2cnn(C3CCNCC3)c2)cnc1N)c1c(Cl)ccc(F)c1Cl [Crizotinib]; details: max 10 µM
Method in brief: as §1

Savolitinib = compound: C[C@@H](c1ccc2nccn2c1)n1nnc2ncc(-c3cnn(C)c3)nc21 [Savolitinib]; details: max 1 µM
Method in brief: as §1

AZD6738 = compound: C[C@@H]1COCCN1C2=NC(=NC(=C2)C3(CC3)[S@](=N)(=O)C)C4=C5C=CNC5=NC=C4 [AZD6738]; details: max 10 µM
Method in brief: as §1

AZD5991 = compound: Cc1c2c(nn1C)CSCc1cc(n(C)n1)CSc1cc(c3ccccc3c1)OCCCc1c(C(=O)O)n(C)c3c-2c(Cl)ccc13 [AZD5991]; details: max 1 µM
Method in brief: as §1

AZD7648 = compound: Cc1cc2ncnn2cc1Nc1ncc2c(n1)n(C1CCOCC1)c(=O)n2C [AZD7648]; details: max 10 µM
Method in brief: as §1

Taselisib = compound: Cc1nc(-c2cn3c(n2)-c2ccc(-c4cnn(C(C)(C)C(N)=O)c4)cc2OCC3)n(C(C)C)n1 [Taselisib]; details: max 10 µM
Method in brief: as §1

Selumetinib = compound: Cn1cnc2c(F)c(Nc3ccc(Br)cc3Cl)c(C(=O)NOCCO)cc21 [Selumetinib]; details: max 10 µM
Method in brief: as §1

SRA737 = compound: N#Cc1cnc(Nc2cc(NC[C@H]3CNCCO3)c(C(F)(F)F)cn2)cn1 [SRA737]; details: max 10 µM
Method in brief: as §1

MK-2206 = compound: NC1(c2ccc(-c3nc4ccn5c(=O)[nH]nc5c4cc3-c3ccccc3)cc2)CCC1 [MK-2206]; details: max 10 µM
Method in brief: as §1

Gemcitabine = compound: Nc1ccn([C@@H]2O[C@H](CO)[C@@H](O)C2(F)F)c(=O)n1 [Gemcitabine]; details: max 0.3 µM
Method in brief: as §1

[1] = compound: O=C(Nc1ccc2[nH]nc(-c3ccncc3)c2c1)[C@@H]1CCN(CC(=O)N2CCN(c3ccc(-c4ncccn4)cc3)CC2)C1; details: max 5 µM
Method in brief: as §1

Olaparib = compound: O=C(c1cc(Cc2n[nH]c(=O)c3ccccc23)ccc1F)N1CCN(C(=O)C2CC2)CC1 [Olaparib]; details: max 10 µM
Method in brief: as §1

5-Fluorouracil = compound: O=c1[nH]cc(F)c(=O)[nH]1 [5-Fluorouracil]; details: max 20 µM
Method in brief: as §1

| Cell Line | IC50, cell viability 72 h (Carboplatin) | IC50, cell viability 72 h (AZD5363) | IC50, cell viability 72 h (AZD1775) | IC50, cell viability 72 h (Trametinib) | IC50, cell viability 72 h (Paclitaxel) | IC50, cell viability 72 h (Palbociclib) | IC50, cell viability 72 h (AZD1390) | IC50, cell viability 72 h (Venetoclax) | IC50, cell viability 72 h (Dasatinib) | IC50, cell viability 72 h (SG3199) | IC50, cell viability 72 h (AZD2811) | IC50, cell viability 72 h (SN-38) | IC50, cell viability 72 h (AZD0156) | IC50, cell viability 72 h (AZD4320) | IC50, cell viability 72 h (Alisertib) | IC50, cell viability 72 h (Etoposide) | IC50, cell viability 72 h (Gefitinib) | IC50, cell viability 72 h (Prexasertib) | IC50, cell viability 72 h (Doxorubicin) | IC50, cell viability 72 h (AZD5153) | IC50, cell viability 72 h (Lapatinib) | IC50, cell viability 72 h (AZD8186) | IC50, cell viability 72 h (Crizotinib) | IC50, cell viability 72 h (Savolitinib) | IC50, cell viability 72 h (AZD6738) | IC50, cell viability 72 h (AZD5991) | IC50, cell viability 72 h (AZD7648) | IC50, cell viability 72 h (Taselisib) | IC50, cell viability 72 h (Selumetinib) | IC50, cell viability 72 h (SRA737) | IC50, cell viability 72 h (MK-2206) | IC50, cell viability 72 h (Gemcitabine) | IC50, cell viability 72 h [1] | IC50, cell viability 72 h (Olaparib) | IC50, cell viability 72 h (5-Fluorouracil) |
| --- | --- | --- | --- | --- | --- | --- | --- | --- | --- | --- | --- | --- | --- | --- | --- | --- | --- | --- | --- | --- | --- | --- | --- | --- | --- | --- | --- | --- | --- | --- | --- | --- | --- | --- | --- |
| DU-145 (Prostate Carcinoma) | > 10000 nM | > 10000 nM | > 3000 nM | > 1000 nM | 187 nM | > 10000 nM | > 300 nM | > 1000 nM | > 2000 nM | > 1 nM | > 1000 nM | 47.3 nM | > 3000 nM | > 1000 nM | > 10000 nM | > 10000 nM | > 10000 nM | 262 nM | > 1000 nM | > 1000 nM | > 10000 nM | > 10000 nM | > 10000 nM | > 1000 nM | > 10000 nM | > 1000 nM | > 10000 nM | > 10000 nM | > 10000 nM | > 10000 nM | > 10000 nM | > 300 nM | > 5000 nM | > 10000 nM | > 20000 nM |
| EFO-21 (Ovarian Carcinoma) | > 10000 nM | > 10000 nM | > 3000 nM | > 1000 nM | > 3000 nM | > 10000 nM | > 300 nM | > 1000 nM | > 2000 nM | > 1 nM | > 1000 nM | > 300 nM | > 3000 nM | > 1000 nM | > 10000 nM | > 10000 nM | > 10000 nM | 101 nM | > 1000 nM | > 1000 nM | > 10000 nM | > 10000 nM | > 10000 nM | > 1000 nM | > 10000 nM | > 1000 nM | > 10000 nM | > 10000 nM | > 10000 nM | > 10000 nM | > 10000 nM | > 300 nM | > 5000 nM | > 10000 nM | > 20000 nM |
| HAL-01 (B-Lymphoblastic Leukemia) | > 10000 nM | > 10000 nM | 327 nM | > 1000 nM | 335 nM | 1890 nM | > 300 nM | 109 nM | > 2000 nM | > 1 nM | > 1000 nM | 5.69 nM | > 3000 nM | 496 nM | 109 nM | 2700 nM | > 10000 nM | 16.6 nM | 496 nM | 91.8 nM | > 10000 nM | 1130 nM | 2840 nM | > 1000 nM | 652 nM | > 1000 nM | > 10000 nM | 360 nM | > 10000 nM | 528 nM | 1000 nM | 2.47 nM | > 5000 nM | > 10000 nM | > 20000 nM |
| SK-LU-1 (Lung Adenocarcinoma) | > 10000 nM | > 10000 nM | 1150 nM | > 1000 nM | > 3000 nM | > 10000 nM | > 300 nM | > 1000 nM | > 2000 nM |  | > 1000 nM | 145 nM | > 3000 nM | > 1000 nM |  | > 10000 nM | > 10000 nM |  |  | > 1000 nM | > 10000 nM | > 10000 nM | > 10000 nM | > 1000 nM | > 10000 nM | > 1000 nM | > 10000 nM | > 10000 nM | > 10000 nM | > 10000 nM | > 10000 nM | > 300 nM | > 5000 nM | > 10000 nM | > 20000 nM |
